# Assay results published in patent publication US7456154B2 (priority 2001, dated 2008).
# “And” between values parts separate entries of the source, which are not always exact repeats. Identical values can stand only once.
# How the values were obtained:
# [1] = tested on: EAMG rats; experiment: Treadmill running time and clinical status of EAMG rats; format: in vivo, rat; settings: for Treadmill Performance Time: individual EAMG rat; for Clinical score: individual rat
# [2] = tested on: AChE-S; experiment: AChE-S expression in mandibular lymph nodes of Crl:CD rats; format: in vivo, rat; settings: 0.50 μg/g/day, 7 days; rEN101 oral or i.v., hEN101 i.v.
# [3] = tested on: AChE-S mRNA; experiment: In situ hybridization of AChE-S mRNA in monkey spinal cord; format: in vivo, Cynomolgus monkey; settings: oral 0.15 and 0.50, i.v. 0.50 μg/g/day, 7 days
# Protocol: (§1) In situ hybridization: Tissues were fixed in 4% paraformaldehyde and cut into 7 μm paraffin embedded sections. Spinal cord sections were deparaffinized, rehydrated using serial ethanol dilutions and permeabilized with proteinase K (10 μg/ml at room temp.). Slides were exposed to 5′ biotinylated, fully 2′-oxymethylated AChE-R or AChE-S-specific 50-mer cRNA probes complementary to human ACHE pseudo-intron 4 or exon 6, respectively [Grisaru et al. (2001) id ibid.]. Hybridization was performed overnight at 52° C. in hybridization mixture containing 10 μg/ml probe, 50 μg/ml yeast tRNA, 50 μg/ml heparin and 50% formamide in 375 mM Na chloride, 37.5 mM Na citrate, pH 4.5. For monkey sections, the probe was constructed according to the human AChE-R sequence; for rat sections, according to the mouse sequence. Slides were washed to remove non-hybridized probe, blocked with 1% skim milk containing 0.01% Tween-20 and 2 mM levamisole, an alkaline phosphatase inhibitor used to suppress non-specific staining and incubate with streptavidin-alkaline phosphatase (Amersham Pharmacia). Fast Red™ substrate (Roche Diagnostics) was used for detection. DAPI staining (Sigma Chemical Co., St. Louis, Mo., USA) served to visualize nuclei. Microscope images were analyzed with Image Pro Plus 4.0 (Media Cybernetics) software. […]
# [4] = tested on: AChE-R mRNA; experiment: AChE-R mRNA in mandibular lymph nodes of Crl:CD rats; format: in vivo, rat; settings: 0.50 μg/g/day, 7 days; rEN101 oral or i.v., hEN101 i.v.; vs saline
# Protocol: A study of the potential efficacy as well as toxicity of hEN101 was conducted on 4 week-old Crl:CD rats. To groups of 12 animals (6 males, 6 females) were administered 0.0 (saline only), 0.50 or 2.50 μg/g/day of hEN101 by oral gavage (o.g.), 0.50 μg/g/day of rEN101 by o.g., or 0.50 μg/g/day of rEN101 or hEN101 by i.v. injection. Additionally, there was a control group that was not injected. For 7 days the animals were checked for gross signs of toxicity: mortality, body weight, food consumption, ophtalmology, hematology (peripheral blood), and blood chemistry. At 7 days they were sacrificed and examined post mortem for macroscopic pathology and organ weight. Fixed sections of brain (cerebellum, cerebrum, midbrain, medulla), heart (auricular and ventricular regions), kidneys (cortex, medulla, papilla regions), liver (all main lobes), lungs (two major lobes, including bronchi), lymph nodes (mandibular and mesenteric), spinal cord (transverse and longitudinal sections at cervical, lumbar and thoracic levels), caecum, colon, duodenum, ileum, jejunum, esophagus, rectum, spleen and stomach (keratinized, glandular and antrum) were stained with hematoxylin/eosin to reveal necrosis or cell death.
# Mandibular lymph nodes were examined for the effect of EN101 on AChE-R mRNA. […]
# [5] = tested on: Cynomolgus monkeys; experiment: 7-day toxicology study of hEN101 in Cynomolgus monkeys; format: in vivo, Cynomolgus monkey
# Protocol: This experiment was conducted with six (3 males and 3 females) purpose-bred 15 month-old (young adult) Cynomolgus monkeys, divided in three groups (1, 2 and 3) of one male and one female each. Groups 1 and 2 received hEN101 daily by o.g. for a period of 7 days, at a concentration of 0.15 and 0.50 μg/g/day, respectively. Group 3 received daily i.v. injections of hEN101 for a period of 7 days at a dosage of 0.50 μg/g/day.
# Over a 12 hour period, plasma samples were obtained during the second treatment day to investigate the toxicokinetic profile at each dosage. The toxicology study consisted of checking the animals during the 7 days of treatment for gross signs of toxicity by the following parameters: mortality, body weight, food consumption, electrocardiography, blood pressure, hematology (peripheral blood), and blood chemistry. At 7 days the monkeys were sacrificed and examined post-mortem for macroscopic pathology and organ weight. Fixed sections of brain (cerebellum, cerebrum, midbrain, medulla), caecum, colon, duodenum, heart (auricular and ventriclar regions), ileum, jejunum, kidneys (cortex, medulla, papilla regions), liver (two main lobes), lungs (two major lobes, including bronchi), lymph nodes (mandibular and mesenteric), esophagus, rectum, sciatic nerve, skeletal muscle (thigh), spinal cord (transverse and longitudinal sections at cervical level), spleen and stomach (body and antrum) were stained with hematoxylin/eosin to reveal necrosis or cell death.
# [6] = tested on: AChE-R mRNA; experiment: In situ hybridization of AChE-R mRNA in rat spinal cord neurons; format: in vivo; settings: 500 μg/kg i.v. daily, 7 days
# Protocol: FIG. 17 Effect of rEN101 on AChE-R mRNA in rat spinal cord neurons. The presence of AChE-R mRNA-positive cells was determined in spinal cord section of rats that had been treated for 7 days with rEN101 (500 μg/kg. i.v., daily).
# In situ hybridization: Tissues were fixed in 4% paraformaldehyde and cut into 7 μm paraffin embedded sections. Spinal cord sections were deparaffinized, rehydrated using serial ethanol dilutions and permeabilized with proteinase K (10 μg/ml at room temp.). Slides were exposed to 5′ biotinylated, fully 2′-oxymethylated AChE-R or AChE-S-specific 50-mer cRNA probes complementary to human ACHE pseudo-intron 4 or exon 6, respectively [Grisaru et al. (2001) id ibid.]. Hybridization was performed overnight at 52° C. in hybridization mixture containing 10 μg/ml probe, 50 μg/ml yeast tRNA, 50 μg/ml heparin and 50% formamide in 375 mM Na chloride, 37.5 mM Na citrate, pH 4.5. For monkey sections, the probe was constructed according to the human AChE-R sequence; for rat sections, according to the mouse sequence. Slides were washed to remove non-hybridized probe, blocked with 1% skim milk containing 0.01% Tween-20 and 2 mM levamisole, an alkaline phosphatase inhibitor used to suppress non-specific staining and incubate with streptavidin-alkaline phosphatase (Amersham Pharmacia). […] Microscope images were analyzed with Image Pro Plus 4.0 (Media Cybernetics) software.
# [7] = tested on: AChE-R mRNA; experiment: In situ hybridization of AChE-R mRNA in rat muscle; format: in vivo; settings: healthy and EAMG rats
# Protocol: as §1
substance,measurement,setting,value
5′-CTGCCACGTTCTCCTGCACC-3′ [hEN101],Effect on muscle stamina in EAMG rats,[1]; 0.25 μg/g oral single dose,promoted muscle stamina
same,Treadmill Performance Time,"[1]; 5 h, 0.25 μg/g oral single dose",300 s and 120 s and 150 s and 70 s
same,Treadmill Performance Time,"[1]; 24 h, 0.25 μg/g oral single dose",345 s and 170 s and 380 s and 360 s and 30 s
same,Clinical score,"[1]; 24 h, scale 0 to 5 (death), 0.25 μg/g oral single dose",(1) (3×) and (2) and |||| (3) and (3)
same,Treadmill Performance Time,"[1]; 48 h, 0.25 μg/g oral single dose",85 s and 290 s
same,Clinical score,"[1]; 48 h, scale 0 to 5 (death), 0.25 μg/g oral single dose",2.5 and 2 and || (5)
same,Treadmill Performance Time,"[1]; before (basal), 0.25 μg/g oral single dose",210 s and 80 s and 180 s and 30 s and 110 s and 0 s
same,Clinical score,"[1]; before (basal), scale 0 (no weakness) to 5 (death)",(2.5) (2×) and 3 and (3.5) and (3) and 3.5
same,Expression of AChE-S synaptic variant in mandibular lymph nodes,[2],did not affect the expression
same,AChE-S mRNA in spinal cord,[3],no apparent reduction
same,AChE-R mRNA levels in mandibular lymph nodes,[4],inconsistent in depressing AChE-R mRNA levels
same,Post-mortem finding at injection site,"[5]; i.v. 0.50 μg/g/day, 7 days",some irritation of the perivascular tissue at the site of intravenous injection
same,Animals with slight healing erosions in the body of the stomach post-mortem,"[5]; in each group, possibly associated with treatment",1 of 2
same,Clinical investigations for toxicity,"[5]; o.g. 0.15 or 0.50 μg/g/day, i.v. 0.50 μg/g/day, 7 days",no toxicological effects
5′-CTGCGATATTTTCTTGTACC-3′ (chemistry not given here) [rEN101],Treadmill running time after treatment,"[1]; EAMG disease grade 2, 250 μg/Kg i.v., 24 h",488 ± 58 s
same,Treadmill running time before treatment,"[1]; EAMG disease grade 2, 25 m/min",247 ± 35 s
same,Treadmill running time after treatment,"[1]; EAMG disease grade 3, 250 μg/Kg i.v., 24 h",500 ± 193 s
same,Treadmill running time before treatment,"[1]; EAMG disease grade 3, 25 m/min",179 ± 21 s
same,Treadmill running time after treatment,"[1]; EAMG disease grade 4, 250 μg/Kg i.v., 24 h",212 ± 59 s
same,Treadmill running time before treatment,"[1]; EAMG disease grade 4, 25 m/min",32 ± 6 s
same,AChE-R mRNA in rat spinal cord neurons,[6],does not suppress AChE-R mRNA
same,AChE-R mRNA labeling in muscle,[7],almost to the limit of detection
same,Expression of AChE-S synaptic variant in mandibular lymph nodes,[2],did not affect the expression
same,AChE-R mRNA levels in mandibular lymph nodes,[4],inconsistent in depressing AChE-R mRNA levels
